Laboratory results: patent US20020137929A1, “1 - (3-heterocyclylphenyl) isothiourea, -isourea, -guanidine and -amidine herbicidal agents” (Intellectual Property Department, BASF Aktiengesellschaft, priority 1998, published 2002)

Columns and labels:
[1] = tested on: AMBEL (Ragweed, Common); test: Postemergence herbicidal evaluation; type: in vivo, Ambrosia artemisifolia; settings: for AMBEL herbicidal rating: postemergence
Procedure, shortened: (§1)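 Seedlings grown about two weeks were sprayed at 40 psi with compound dispersed in 50/50 acetone/water plus 0.5% TWEEN 20, at about 0.0156 to 0.500 kg/ha. Plants were kept in the greenhouse and scored 4–5 weeks later on a 0–9 visual scale against untreated controls.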

[2] = tested on: GALAP (Galium); test: Postemergence herbicidal evaluation; type: in vivo, Galium aparine; settings: for GALAP herbicidal rating: postemergence
Procedure, shortened: as §1

[3] = tested on: TRZAWR (Wheat, Winter, cv Riband); test: Postemergence herbicidal evaluation; type: in vivo, Triticum aestivum; settings: for TRZAWR herbicidal rating: postemergence
Procedure, shortened: as §1

[4] = tested on: CHEAL (Lambsquarters, Common); test: Preemergence herbicidal evaluation; type: in vivo, Chenopodium album; settings: rated 4-5 weeks after treatment
Procedure, shortened: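 Seeds were planted in potting soil in cups, then sprayed preemergence with the test compound in aqueous acetone at about 0.0156 to 0.500 kg per hectare. Cups were kept under greenhouse conditions and visually rated 4–5 weeks after treatment on a 0–9 scale against an untreated control.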

[5] = tested on: MOOVA (Monochoria); test: Postemergence weed control under flooded paddy conditions; type: in vivo, Monochoria vaginalis; settings: postemergence weeds, 3-4 weeks after treatment
Procedure, shortened: (§2)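 Weeds 3 to 5 cm tall and rice seedlings at the 1.5 to 2.5 leaf stage were flooded, with water held 1.5 to 3 cm above the soil. Compounds in 50/50 v/v aqueous/acetone went into the flood water at about 0.0313 to 0.500 kg/ha. Visual 0-9 ratings versus control were made 3 to 4 weeks later.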

[6] = tested on: SAGPY (Arrowhead (Pygmaea)); test: as above; type: in vivo, Sagittaria pygmaea; settings: postemergence weeds, 3-4 weeks after treatment
Procedure, shortened: as §2

| SMILES | AMBEL herbicidal rating ([1]; rate 0.0156 kg/ha) | AMBEL herbicidal rating ([1]; rate 0.0313 kg/ha) | AMBEL herbicidal rating ([1]; rate 0.0625 kg/ha) | GALAP herbicidal rating ([2]; rate 0.0156 kg/ha) | GALAP herbicidal rating ([2]; rate 0.0313 kg/ha) | GALAP herbicidal rating ([2]; rate 0.0625 kg/ha) | TRZAWR herbicidal rating ([3]; rate 0.0156 kg/ha) | TRZAWR herbicidal rating ([3]; rate 0.0313 kg/ha) | TRZAWR herbicidal rating ([3]; rate 0.0625 kg/ha) | Preemergence herbicidal rating CHEAL ([4]; rate 0.0156 kg/ha) | Preemergence herbicidal rating CHEAL ([4]; rate 0.0313 kg/ha) | Herbicidal rating MOOVA ([5]; rate 0.0313 kg/ha) | Herbicidal rating MOOVA ([5]; rate 0.0625 kg/ha) | Herbicidal rating MOOVA ([5]; rate 0.1250 kg/ha) | Herbicidal rating MOOVA ([5]; rate 0.2500 kg/ha) | Herbicidal rating SAGPY ([6]; rate 0.0313 kg/ha) | Herbicidal rating SAGPY ([6]; rate 0.0625 kg/ha) | Herbicidal rating SAGPY ([6]; rate 0.1250 kg/ha) | Herbicidal rating SAGPY ([6]; rate 0.2500 kg/ha) | Preemergence herbicidal rating CHEAL ([4]; rate 0.0625 kg/ha) | also measured |
| --- | --- | --- | --- | --- | --- | --- | --- | --- | --- | --- | --- | --- | --- | --- | --- | --- | --- | --- | --- | --- | --- |
| CCOC(=O)CN1C(=O)CN(C)C1=Nc1cc(-n2c(=O)cc(C(F)(F)F)n(C)c2=O)c(F)cc1Cl [Compound 25, Ethyl 2-{{2-chloro-5-[3,6-dihydro-3-methyl-2,6-dioxo-4-(trifluoromethyl)-1(2H)-pyrimidinyl]-4-fluorophenyl}imino}-3-methyl-5-oxo-1-imidazolidineacetate] | 3.0 | 4.0 | 9.0 | 2.0 | 5.0 | 7.0 | 2.0 | 3.0 | 3.0 | 7.0 | 9.0 | 9.0 | 9.0 | 9.0 | 9.0 | 0.0 | 0.0 | 5.0 | 5.0 |  | CHEAL preemergence herbicidal rating ([4]; rate 0.0625 kg/ha): 9.0; CHEAL preemergence herbicidal rating ([4]; rate 0.1250 kg/ha): 9.0; CHEAL preemergence herbicidal rating ([4]; rate 0.2500 kg/ha): 9.0 |
| Cn1c(C(F)(F)F)cc(=O)n(-c2cc(N=C3SCC(=O)N3Cc3ccccc3)c(Cl)cc2F)c1=O [Compound 26] | 9.0 | 8.0 | 9.0 | 3.0 | 5.0 | 5.0 | 1.5 | 2.5 | 3.5 | 3.0 | 9.0 | 9.0 | 9.0 | 9.0 | 9.0 | 0.0 | 4.0 | 5.0 | 7.0 | 9.0 | Preemergence herbicidal rating CHEAL ([4]; rate 0.1250 kg/ha): 9.0; Preemergence herbicidal rating CHEAL ([4]; rate 0.2500 kg/ha): 9.0 |
| COC(=O)CCCN1C(=O)CSC1=Nc1cc(-n2c(=O)cc(C(F)(F)F)n(C)c2=O)c(F)cc1Cl [Compound 29, Methyl 2-{{2-chloro-5-[3,6-dihydro-3-methyl-2,6-dioxo-4-(trifluoromethyl)-1(2H)-pyrimidinyl]-4-fluorophenyl}imino}-4-oxo-3-thiazolidinebutyrate] |  |  |  |  |  |  |  |  |  |  |  | 0.0 | 0.0 | 0.0 | 0.0 | 0.0 | 0.0 | 0.0 | 0.0 | 0.0 | Postemergence herbicidal rating AMBEL ([1]; Rate 0.0158 kg/ha): 1.0; Postemergence herbicidal rating AMBEL ([1]; Rate 0.0315 kg/ha): 4.0; Postemergence herbicidal rating AMBEL ([1]; Rate 0.0630 kg/ha): 9.0; Postemergence herbicidal rating GALAP ([2]; Rate 0.0158 kg/ha): 1.0; Postemergence herbicidal rating GALAP ([2]; Rate 0.0315 kg/ha): 1.0; Postemergence herbicidal rating GALAP ([2]; Rate 0.0630 kg/ha): 7.0; Postemergence herbicidal rating TRZAWR ([3]; Rate 0.0158 kg/ha): 4.5; Postemergence herbicidal rating TRZAWR ([3]; Rate 0.0315 kg/ha): 5.0; Postemergence herbicidal rating TRZAWR ([3]; Rate 0.0630 kg/ha): 5.5; Preemergence herbicidal rating CHEAL ([4]; rate 0.1250 kg/ha): 0.0; Preemergence herbicidal rating CHEAL ([4]; rate 0.2500 kg/ha): 0.0 |
